Laboratory results: ChEMBL document CHEMBL5058564, “EUbOPEN Chemogenomics Library 2 (Incucyte)” (2022)

Legend:
Type in all cases: toxicity, cell-based
HEK-293T = test: Incucyte cell viability with HEK293T; details: human, 10 µM, compound concentration 10 uM
Fibroblast = test: Incucyte cell viability with human fibroblast; details: 10 µM, compound concentration 10 uM
U2OS = test: Incucyte cell viability with U2OS; details: human, 10 µM, compound concentration 10 uM
[1] = 6 h, replicate number 1, timepoint 6 hours
[2] = 12 h, replicate number 1, timepoint 12 hours
[3] = 18 h, replicate number 1, timepoint 18 hours
[4] = 24 h, replicate number 1, timepoint 24 hours
[5] = 6 h, replicate number 2, timepoint 6 hours
[6] = 12 h, replicate number 2, timepoint 12 hours
[7] = 18 h, replicate number 2, timepoint 18 hours
[8] = 24 h, replicate number 2, timepoint 24 hours
[9] = 0 h, replicate number 1, timepoint 0 hours
[10] = 0 h, replicate number 2, timepoint 0 hours
Note: unitless GR value; below 1 slowed growth and below 0 cell loss.

| Structure (SMILES) | Growth Rate (HEK-293T; [1]) | Growth Rate (HEK-293T; [2]) | Growth Rate (HEK-293T; [3]) | Growth Rate (HEK-293T; [4]) | Growth Rate (Fibroblast; [1]) | Growth Rate (Fibroblast; [2]) | Growth Rate (Fibroblast; [6]) | Growth Rate (Fibroblast; [3]) | Growth Rate (Fibroblast; [7]) | Growth Rate (Fibroblast; [4]) | Growth Rate (Fibroblast; [8]) | Growth Rate (U2OS; [9]) | Growth Rate (U2OS; [10]) | Growth Rate (U2OS; [1]) | Growth Rate (U2OS; [6]) | Growth Rate (U2OS; [7]) | Growth Rate (HEK-293T; [8]) | Growth Rate (U2OS; [2]) | Growth Rate (U2OS; [5]) | Growth Rate (U2OS; [3]) | also measured |
| --- | --- | --- | --- | --- | --- | --- | --- | --- | --- | --- | --- | --- | --- | --- | --- | --- | --- | --- | --- | --- | --- |
| COc1cc(C(=O)N2CC[C@@H](O)[C@@H](N)C2)cc2nc(-c3cc4ccccc4n3CC3CC3)n(C)c12.Cl | 0.71 | 0.85 | 0.88 | 0.77 | -0.98 | -0.8 | -0.18 | -0.63 | -0.01 | -0.52 | 0.15 | -0.04 | 0.15 | 0.61 | 0.98 | 0.99 | – | – | – | – | Growth Rate (Fibroblast; [5]): -0.57 |
| NC(=O)c1cccc(-c2cc(Nc3ccc(OC(F)(F)F)cc3)ncn2)c1 | -0.43 | 0.03 | 0.18 | 0.26 | -0.84 | -0.48 | 0.37 | -0.35 | 0.53 | -0.05 | 0.46 | – | – | – | – | 0.93 | 0.48 | 0.98 | – | – | Growth Rate (HEK-293T; [5]): 0.03; Growth Rate (HEK-293T; [6]): 0.25; Growth Rate (HEK-293T; [7]): 0.3; Growth Rate (Fibroblast; [5]): 0.58; Growth Rate (U2OS; [4]): 0.94 |
| Cc1cc(OCCCS(C)(=O)=O)cc(C)c1-c1cccc(COc2ccc3c(c2)OC[C@H]3CC(=O)O)c1 | – | – | 0.7 | 0.69 | -0.03 | 1 | 0.55 | – | 0.31 | 0.78 | 0.67 | 0.26 | – | – | 0.89 | 0.9 | – | – | 0.73 | – | Growth Rate (Fibroblast; [10]): 0.69; Growth Rate (Fibroblast; [5]): 0.19 |
| O=C(NCCO)c1cccc(-c2cc(Nc3ccc(OC(F)(F)F)cc3)ncn2)c1 | -0.41 | -0.19 | 0.05 | 0.15 | -0.91 | -0.72 | 0.04 | -0.61 | 0.03 | -0.55 | 0.06 | -0.12 | 0.42 | 0.49 | 0.83 | 0.99 | 0.26 | 0.52 | 1 | 0.47 | Growth Rate (HEK-293T; [5]): -0.4; Growth Rate (HEK-293T; [6]): -0.13; Growth Rate (HEK-293T; [7]): 0.17; Growth Rate (Fibroblast; [10]): 0.6; Growth Rate (U2OS; [4]): 0.79; Growth Rate (U2OS; [8]): 0.91 |
| CCCN1CCO[C@H]2c3cc(O)ccc3OC[C@@H]21.Cl | – | – | – | – | – | 0.98 | – | 0.72 | – | 0.8 | – | 0.55 | – | 0.6 | – | – | 0.96 | 0.93 | – | 0.92 | Growth Rate (HEK-293T; [9]): 0.72; Growth Rate (HEK-293T; [10]): -0.13; Growth Rate (Fibroblast; [9]): 0.77; Growth Rate (Fibroblast; [10]): 0.29 |
| Cl.N=C(N)NC(=O)Cc1c(Cl)cccc1Cl [GUANFACINE HYDROCHLORIDE] | 0.87 | 0.84 | 0.76 | 0.76 | – | – | – | 0.88 | 0.92 | 0.38 | 0.81 | – | – | 0.84 | – | – | – | 0.99 | – | – | Growth Rate (HEK-293T; [9]): 0.44; Growth Rate (Fibroblast; [9]): 0.58; Growth Rate (Fibroblast; [10]): 0.01 |
| CCC(=O)N1CC[C@H](Nc2ncnc3c2CN(c2cnc(OC)c(C(F)(F)F)c2)CC3)C1 [LENIOLISIB] | 0.27 | 0.69 | 0.81 | 0.96 | -0.68 | 0.26 | – | 0.75 | – | 0.72 | – | 0.57 | 0.52 | 0.65 | 0.58 | 0.79 | 0.71 | – | 0.66 | 0.83 | Growth Rate (HEK-293T; [5]): -0.14; Growth Rate (HEK-293T; [6]): 0.28; Growth Rate (HEK-293T; [7]): 0.66; Growth Rate (Fibroblast; [5]): 0.91; Growth Rate (U2OS; [4]): 0.81; Growth Rate (U2OS; [8]): 0.79 |
| CN(C)[C@H]1CN(C2CCc3cccc(F)c32)C[C@@H]1c1ccc(N2CCN(S(C)(=O)=O)CC2)cc1 (stereo not given in full) | – | – | – | – | – | – | – | 0.68 | – | 0.75 | – | -0.44 | -0.68 | 0.58 | 0.83 | 0.9 | 0.8 | 0.63 | 0.61 | 0.87 | Growth Rate (HEK-293T; [5]): 0.35; Growth Rate (HEK-293T; [6]): 0.71; Growth Rate (HEK-293T; [7]): 0.89; Growth Rate (Fibroblast; [5]): 0.88; Growth Rate (U2OS; [4]): 0.97; Growth Rate (U2OS; [8]): 0.98 |
| CN(C)C(=O)Cn1cc(-c2ccc(-c3cncc4ccccc34)cc2)cn1 | – | 0.97 | 0.9 | 0.9 | – | 0.27 | 1 | 0.21 | 0.82 | 0.05 | 0.61 | -0.34 | 0.27 | 0.31 | 0.74 | 0.76 | – | 0.43 | 0.79 | 0.59 | Growth Rate (HEK-293T; [9]): 0.84; Growth Rate (U2OS; [4]): 0.7; Growth Rate (U2OS; [8]): 0.86 |
| N[C@@]1(C(=O)O)CC[C@H]2[C@H](C(=O)O)[C@H]21 | – | – | – | – | 0.5 | 0.44 | 0.63 | 0.57 | 0.79 | 0.52 | 0.35 | – | -1 | 0.86 | 0.94 | 1 | 0.86 | 0.67 | 0.76 | 0.7 | Growth Rate (HEK-293T; [9]): 0.6; Growth Rate (HEK-293T; [10]): 0.94; Growth Rate (Fibroblast; [9]): -0.03; Growth Rate (Fibroblast; [10]): 0.85; Growth Rate (U2OS; [8]): 0.97 |
